# Laboratory results: patent US20260256751A1, “COMBINATION OF BETA-2-ADRENERGIC RECEPTOR AGONISTS AND GLP-1 RECEPTOR AGONISTS FOR USE IN TREATING HYPERGLYCAEMIA” (ATROGI AB, priority 2023, published 2026)
# Key:
# [1] = system: differentiated L6-myotubes; assay: Glucose uptake screen (Biological example 1 of WO 2019/053427); type: cell-based; settings: compound at 10 μM, activity relative to isoproterenol at 10 μM, read-out: Biological example 1 of WO 2019/053427 (GU)
# Method in brief: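 Rat L6 myoblasts were differentiated into myotubes over 7 days in 2% FBS, then serum-starved overnight. Cells were stimulated with 1×10^−5 M compound plus β2 antagonist ICI-118551 for 1 h 40 min and re-dosed for 20 min in glucose-free medium. Uptake of 50 nM ^3H-2-deoxyglucose over 10 min was counted after NaOH lysis.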
# [2] = system: differentiated L6-myotubes; assay: cAMP production relative to isoprenaline (Biological example 2 of WO 2019/053427); type: cell-based; settings: 0.25 h, compound at 10 μM, activity relative to isoproterenol at 10 μM
# Method in brief: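 Differentiated L6 myotubes stimulated 15 min with test compound or isoprenaline, each at final 1×10^−5 M, in HBSS with 1% BSA, 5 mM HEPES, 1 mM IBMX, pH 7.4. cAMP production by the compound expressed relative to that induced by the same concentration of isoprenaline.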
smiles,measurement,setting,value
"CC12CC(C1)[C@H]([C@@H](O)c1cncc(F)c1)N2 [Compound 222, (S)-{(R)-1-methyl-2-azabicyclo[2.1.1]hex-3-yl}(5-fluoro-3-pyridyl)methanol]",Emax at 10 µM,[1],< 25%
same,Emax at 10 µM,[2],< 25%
"CS(=O)(=O)Nc1cccc(CC23CCC([C@@H](O)c4cccc(F)c4)(CC2)N3)c1 [Compound 514, (S)-(m-fluorophenyl)(4-{[m-(mesylamino)phenyl]methyl}-7-azabicyclo[2.2.1]hept-1-yl)methanol]",Emax at 10 µM,[1],50 to 75%
same,Emax at 10 µM,[2],< 25%
"COc1ccc(C[C@@H]2CC[C@H]([C@H](O)c3cncc(F)c3)N2)cc1 [Compound 378, (R)-{(2R,5S)-5-[(p-methoxyphenyl)methyl]-2-pyrrolidinyl}(5-fluoro-3-pyridyl)methanol]",Emax at 10 µM,[1],> 75%
same,Emax at 10 µM,[2],< 25%
"CC(C)(C[C@H]1CC[C@@H](O)CC1)NC[C@H](O)c1cncc(F)c1 [Compound 301, (R)-2-{1,1-dimethyl-2-[(1s,4S)-4-hydroxycyclohexyl]ethylamino}-1-(5-fluoro-3-pyridyl)-1-ethanol]",Emax at 10 µM,[1],> 75%
same,Emax at 10 µM,[2],< 25%
"CC1(C)CC[C@H]([C@H](O)c2ccc(F)cc2)N1 [Compound 173, (R)-[(R)-5,5-dimethyl-2-pyrrolidinyl](p-fluorophenyl)methanol]",Emax at 10 µM,[1],50 to 75%
same,Emax at 10 µM,[2],< 25%
"CC(=O)N[C@H]1CC[C@H](CNC[C@H](O)c2cccc(F)c2)CC1 [Compound 308, N-[(1R,4r)-4-{[(R)-2-(m-fluorophenyl)-2-hydroxyethylamino]methyl}cyclohexyl]acetamide]",Emax at 10 µM,[1],50 to 75%
same,Emax at 10 µM,[2],< 25%
"O[C@@H](c1cccc(F)c1)C12CCC(C/C=C/c3ccccc3)(CC1)N2 [Compound 533, (S)-{4-[(E)-3-phenyl-2-propenyl]-7-azabicyclo[2.2.1]hept-1-yl}(m-fluorophenyl)methanol]",Emax at 10 µM,[1],< 25%
same,Emax at 10 µM,[2],< 25%
"O[C@@H](CNCC[C@H]1CC[C@@H](OCc2ccccc2)CC1)c1cccc(F)c1 [Compound 287, (R)-1-(m-fluorophenyl)-2-{2-[(1s,4S)-4-(benzyloxy)cyclohexyl]eth-ylamino}-1-ethanol]",Emax at 10 µM,[1],50 to 75%
same,Emax at 10 µM,[2],< 25%
"CC12CC(C1)[C@H]([C@H](O)c1cccc(N)c1F)N2 [Compound 241, (R)-{(R)-1-methyl-2-azabicyclo[2.1.1]hex-3-yl}(3-amino-2-fluorophenyl)methanol]",Emax at 10 µM,[1],> 75%
same,Emax at 10 µM,[2],< 25%
"O=C(N[C@H]1CC[C@@H](CNC[C@H](O)c2cncc(F)c2)CC1)c1ccccc1 [Compound 318, N-[(1S,4s)-4-{[(R)-2-(5-fluoro-3-pyridyl)-2-hydroxyethylamino]methyl}cyclohexyl]benzamide]",Emax at 10 µM,[1],50 to 75%
same,Emax at 10 µM,[2],< 25%
"O[C@H](c1cccc(F)c1)C12CCC(COCc3ccc(F)cc3)(CC1)N2 [Compound 439, (R)-(m-fluorophenyl)(4-{[(p-fluorophenyl)methoxy]methyl}-7-azabicyclo[2.2.1]hept-1-yl)methanol]",Emax at 10 µM,[1],> 75%
same,Emax at 10 µM,[2],25 to 50%
"CC(C)(NC[C@H](O)c1cncc(F)c1)[C@H]1CC[C@H](OCc2ccccc2)CC1 [Compound 281, (R)-1-(5-fluoro-3-pyridyl)-2-{1-methyl-1-[(1r,4R)-4-(benzyloxy)cyclohexyl]eth-ylamino}-1-ethanol]",Emax at 10 µM,[1],50 to 75%
same,Emax at 10 µM,[2],< 25%
"Oc1ccc(C(O)CNCC2CC2)cc1 (stereo not drawn) [Compound 3, p-{2-[(cyclopropylmethyl)ami-no]-1-hydroxyethyl}phenol]",Emax at 10 µM,[1],50 to 75%
same,Emax at 10 µM,[2],< 25%
"CCC[C@H]1CCC[C@@H]([C@H](O)c2cccc(O)c2)N1 [Compound 122, (R)-[(2S,6S)-6-propyl-2-piperidyl](m-hydroxyphenyl)methanol]",Emax at 10 µM,[1],50 to 75%
same,Emax at 10 µM,[2],< 25%
"CC(C)(CC[C@H]1CC[C@@H](O)CC1)NC[C@H](O)c1ccccc1F [Compound 320, (R)-2-{1,1-dimethyl-3-[(1s,4R)-4-hydroxycyclohexyl]propylamino}-1-(o-fluorophenyl)-1-ethanol]",Emax at 10 µM,[1],> 75%
same,Emax at 10 µM,[2],25 to 50%
"CCC[C@H]1CCC[C@H]([C@@H](O)c2cc(F)cc(F)c2)N1 [Compound 66, (S)-[(2R,6S)-6-propyl-2-piperidyl](3,5-difluorophenyl)methanol]",Emax at 10 µM,[1],25 to 50%
same,Emax at 10 µM,[2],< 25%
"CC1(C)C[C@H]([C@H](O)c2cccc(F)c2)N1 [Compound 198, (R)-[(R)-4,4-dimethyl-2-azetidinyl](m-fluorophenyl)methanol]",Emax at 10 µM,[1],> 75%
same,Emax at 10 µM,[2],25 to 50%
"COc1ccc(C[C@H]2CC[C@H]([C@@H](O)c3cccc(F)c3)N2)cc1 [Compound 375, (S)-{(2R,5R)-5-[(p-methoxyphenyl)methyl]-2-pyrrolidinyl}(m-fluorophenyl)methanol]",Emax at 10 µM,[1],> 75%
same,Emax at 10 µM,[2],< 25%
"CCC[C@@H](C)NC[C@H](O)c1ccc(F)cc1 [Compound 52, (R)-2-[(R)-1-methylbutylamino]-1-(p-fluorophenyl)-1-ethanol]",Emax at 10 µM,[1],50 to 75%
same,Emax at 10 µM,[2],< 25%
"CCC[C@H]1CCC[C@H]([C@H](O)c2cncc(F)c2)N1 [Compound 140, (R)-[(2R,6S)-6-propyl-2-piperidyl](5-fluoro-3-pyridyl)methanol]",Emax at 10 µM,[1],< 25%
same,Emax at 10 µM,[2],< 25%
"CCCCNC[C@H](O)c1cnc(NC(=O)C(C)C)nc1 [Compound 88, N-{5-[(R)-2-(butylamino)-1-hydroxyethyl]-2-pyrimidinyl}2-methylpropionamide]",Emax at 10 µM,[1],50 to 75%
same,Emax at 10 µM,[2],< 25%
"CO[C@H]1CC[C@@H](CC(C)(C)NC[C@H](O)c2cncc(F)c2)CC1 [Compound 248, (R)-2-{1,1-dimethyl-2-[(1s,4S)-4-methoxycyclohexyl]ethyl-amino}-1-(5-fluoro-3-pyridyl)-1-ethanol]",Emax at 10 µM,[1],> 75%
same,Emax at 10 µM,[2],< 25%
"CN(C)S(=O)(=O)[C@H]1CC[C@H](CC(C)(C)NC[C@H](O)c2cccc(F)c2)CC1 [Compound 464, (R)-2-{1,1-dimethyl-2-[(1r,4R)-4-(dimethylaminosulfonyl)cyclohexyl]ethylamino}-1-(m-fluorophenyl)-1-ethanol]",Emax at 10 µM,[1],25 to 50%
same,Emax at 10 µM,[2],25 to 50%
"CC(C)(CC[C@H]1CC[C@H](O)CC1)NC[C@H](O)c1cccc(F)c1 [Compound 290, (R)-2-{1,1-dimethyl-3-[(1r,4S)-4-hydroxycyclohexyl]propyl-amino}-1-(m-fluorophenyl)-1-ethanol]",Emax at 10 µM,[1],25 to 50%
same,Emax at 10 µM,[2],< 25%
"CCCCNCC(O)c1ccc(Cl)c(O)c1 (stereo not drawn) [Compound 34, 2-(butylamino)-1-(4-chloro-3-hydroxyphenyl)-1-ethanol]",Emax at 10 µM,[1],> 75%
same,Emax at 10 µM,[2],< 25%
"CC(=O)N(C)[C@H]1CC[C@H](CC(C)(C)NC[C@H](O)c2cncc(F)c2)CC1 [Compound 506, N-[(1R,4r)-4-{2-[(R)-2-(5-fluoro-3-pyridyl)-2-hydroxyethylamino]-2-methylpropyl}cyclohexyl]-N-methylacetamide]",Emax at 10 µM,[1],> 75%
same,Emax at 10 µM,[2],25 to 50%
"O[C@H](c1cncc(F)c1)C12CCC(CCCc3ccccc3)(CC1)N2 [Compound 532, (R)-(5-fluoro-3-pyridyl){4-(3-phenylpropyl)-7-azabicyclo[2.2.1]hept-1-yl}methanol]",Emax at 10 µM,[1],50 to 75%
same,Emax at 10 µM,[2],25 to 50%
